The test system of experiment [1] is Cln2 mRNA. Description: Cln2 mRNA expression by semi-quantitative RT-PCR and real-time PCR in mouse primary astrocytes. In kind it is cell-based. As to the method:
(§1) Astroglia were isolated from mixed glial cultures as described (17,18) according to the procedure of Giulian and Baker (19). Briefly, on day 9, the mixed glial cultures were washed three times with Dulbecco's modified Eagle's medium/F-12 and subjected to shaking at 240 rpm for 2 h at 37° C. on a rotary shaker to remove microglia. After 2 days, the shaking was repeated for 24 h for the removal of oligodendroglia and to ensure the complete removal of all nonastroglial cells. The attached cells were seeded onto new plates for further studies. Total RNA was isolated from mouse primary astrocytes and human primary astrocytes using RNA-Easy Qiagen (Valencia, Calif.) kit following manufactures protocol. Semi-quantitative RT-PCR was carried out as described earlier (24) using oligo (dT) 12-18 as primer and moloney murine leukemia virus reverse transcriptase (MMLV-RT, Invitrogen) in a 20 μl reaction mixture. The resulting cDNA was appropriately amplified using Promega Master Mix (Madison, Wis.) and the following primers (Invitrogen) for murine genes: The mRNA quantification was performed using the ABI-Prism7700 sequence detection system (Applied Biosystems, Foster City, Calif.) using iTaq™ Fast Supermix With ROX (Bio-Rad, Hercules, Calif.) and the following 6-FAM/ZEN/IBFQ-labeled primers for murine genes: Cln2 and Gapdh (Integrated DNA Technologies Coralville, Iowa). The mRNA expression of the targeted genes was normalized to the level of Gapdh mRNA and data was processed by the ABI Sequence Detection System 1.6 software.
(Quantitative PCR measures a nucleic acid by following its amplification.)

Another experiment concerns Cln1 mRNA. Description: Cln1 mRNA expression by semi-quantitative RT-PCR in mouse primary astrocytes. In kind it is cell-based. Conditions: 25 μM gemfibrozil, 2, 6, 12, and 24 hrs. As to the method: as §1, with “The mRNA quantification was performed using the ABI-Prism7700 sequence detection system (Applied Biosystems, Foster City, Calif.) using iTaq™ Fast Supermix With ROX (Bio-Rad, Hercules, Calif.) and the following 6-FAM/ZEN/IBFQ-labeled primers for murine genes: Cln2 and Gapdh (Integrated DNA Technologies Coralville, Iowa). The mRNA expression of the targeted genes was normalized to the level of Gapdh mRNA and data was processed by the ABI Sequence Detection System 1.6 software.” left out

The next experiment deals with Cln3 mRNA. Briefly: Cln3 mRNA expression by semi-quantitative RT-PCR in mouse primary astrocytes. The format is cell-based. The conditions noted are these: 25 μM gemfibrozil, 2, 6, 12, and 24 hrs. As to the method:
as §1, with “The mRNA quantification was performed using the ABI-Prism7700 sequence detection system (Applied Biosystems, Foster City, Calif.) using iTaq™ Fast Supermix With ROX (Bio-Rad, Hercules, Calif.) and the following 6-FAM/ZEN/IBFQ-labeled primers for murine genes: Cln2 and Gapdh (Integrated DNA Technologies Coralville, Iowa). The mRNA expression of the targeted genes was normalized to the level of Gapdh mRNA and data was processed by the ABI Sequence Detection System 1.6 software.” left out

Experiment [2] relates to TPP1. Briefly: TPP1 activity assay on cell extracts of treated mouse brain cells. The format is cell-based. The conditions noted are these: WT astrocytes; 25 μM gemfibrozil and 10 μM fenofibrate, 24 hrs. As to the method: TPP-I activity was assayed in 96-well format plates using the following modification of the method described by Vines and Warburton (6). Briefly, samples and substrate (40 μL) were mixed in individual wells of polystyrene 96-well plate (Nalge Nunc International). […] A3401; Sigma; diluted freshly from a 25 mmol/L stock solution in dimethyl sulfoxide stored at -20° C.) in 0.15 mol/L NaCl-1 g/L Triton X-100-0.1 mol/L sodium acetate, adjusted to pH 4.0 at 20° C. Plates were centrifuged briefly to dispel bubbles and placed in a 37° C. Plates were mixed for 10 s before each reading. The plates were read from the bottom using 360/20 nm excitation and 460/25 nm emission filters. Prior to the assay, the optimum substrate concentration and total protein in cell extract that can used to get best results were determined in the same manner described above, using different substrate concentrations and protein concentrations in the cell extract.

For experiment [3], the system named is Cln2 mRNA. Description: Cln2 mRNA expression by RT-PCR and real-time PCR in human primary astrocytes. In kind it is cell-based.
Procedure: Primary human astroglia were prepared as described (20,21). […] Briefly, 11- to 17-week-old fetal brains obtained from the Human Embryology Laboratory (University of Washington, Seattle, Wash., USA) were dissociated by trituration and trypsinization. On 9th day, these mixed glial cultures were placed on a rotary shaker at 240 rpm at 37° C. for 2 h to remove loosely attached microglia. On 11th day, the flasks were shaken again at 190 rpm at 37° C. for 18 h to remove oligodendroglia. The attached cells remaining were primarily astrocytes. These cells were trypsinized and subcultured in complete media at 37° C. with 5% CO2 in air to yield more viable and healthy cells. […] Semi-quantitative RT-PCR was carried out as described earlier (24) using oligo (dT) 12-18 as primer and moloney murine leukemia virus reverse transcriptase (MMLV-RT, Invitrogen) in a 20 μl reaction mixture. The resulting cDNA was appropriately amplified using Promega Master Mix (Madison, Wis.) and the following primers (Invitrogen) for murine genes: The mRNA quantification was performed using the ABI-Prism7700 sequence detection system (Applied Biosystems, Foster City, Calif.) using iTaq™ Fast Supermix With ROX (Bio-Rad, Hercules, Calif.) and the following 6-FAM/ZEN/IBFQ-labeled primers for murine genes: Cln2 and Gapdh (Integrated DNA Technologies Coralville, Iowa). […]
Experiment [4] relates to TPP1. Description: Immunofluorescence for TPP1 in SH-SY5Y cells. The format is cell-based, human. The conditions noted are these: 25 μM gemfibrozil and 10 μM fenofibrate, 24 hrs. As to the method:
Immunocytochemistry was performed as described earlier (25). Briefly, 8 well chamber slides containing mouse primary astrocytes, mouse neurons, human primary astrocytes or SH-SY5Y cells were cultured to 70-80% confluence were fixed with chilled Methanol (Fisher Scientific, Waltham, Mass.) overnight, followed by two brief rinses with filtered PBS. Samples were blocked with 2% BSA (Fisher Scientific) in PBS containing Tween 20 (Sigma) and Triton X-100 (Sigma) for 30 min and incubated at room temperature under shaking conditions for 2 hr in PBS containing the following anti-mouse primary antibodies: […] Santa Cruz Biotech, Santa Cruz, Calif.), GFAP, (1:100; Santa Cruz), and 3-tubulin (1:5000; Millipore). After four 15 min washes in filtered PBS, the slides were further incubated with Cy2 or Cy5-labeled secondary antibodies (all 1:200; Jackson ImmunoResearch, West Grove, Pa.) for 1 hr under similar shaking conditions. Following four 15 minute washes with filtered PBS, cells were incubated for 4-5 min with 4′, 6-diamidino-2-phenylindole (DAPI, 1:10,000; Sigma). The samples were run in an EtOH and Xylene (Fisher) gradient, mounted and observed under Olympus BX41 fluorescence microscope.

The next experiment relates to primary human astrocytes. Description: LysoTracker labeling of lysosomes in primary human astrocytes. In kind it is cell-based. Conditions: 25 μM gemfibrozil and 10 μM fenofibrate, 24 hrs. The source says: (§2) DAPI was used to visualize nuclei. Results represent 3 independent experiments.
For experiment [5], the system named is tripeptidyl peptidase 1 (TPP1). Description: Double-labeling for TPP1 and β-tubulin (FIG. 11). In kind it is cell-based. Conditions: 25 μM gemfibrozil and 10 μM fenofibrate, 24 hours.
Source text: as §2

The next experiment has as its system CLN2 (−/−) mouse. Briefly: Survival (Kaplan-Meier) of CLN2 (−/−) mice. The format is in vivo. Conditions: oral 7.5 mg/kg body weight/day from 4 weeks of age. The source says:
Treatment was started from 4 weeks of age for all groups. Methyl cellulose was used as vehicle. Top panel: Schematic representation of experiments performed. Bottom panel: Kaplan-Meier plot for percentage survival of treated vs. vehicle or untreated animals.

`Cc1ccc(C)c(OCCCC(C)(C)C(=O)O)c1` [gemfibrozil]: in the experiment on Cln2 mRNA [1] (PPARα−/− astrocytes, different concentrations, 24 hrs), the “Cln2 mRNA expression” value is recorded as “little or no effect”. Further, the “Cln2 mRNA expression in presence of PPARγ antagonist” value with Cln2 mRNA [1] (WT astrocytes pre-treated with GW9662 for 30 min) is recorded as “increased expression”. Also, in the experiment with Cln2 mRNA [1] (astrocytes with RXRα knockdown (RXRα siRNA), gemfibrozil (10 μM), RA (0.5 μM) alone and in combination), the “Cln2 level (quantitative real time PCR)” value is listed as “almost unresponsive”. Besides, the “increase in Cln2 mRNA levels (quantitative real time PCR)” value with Cln2 mRNA [1] (mouse primary astrocytes, 24 hrs, RA 0.5 μM, gemfibrozil 10 μM, combination 10 μM gemfibrozil and 0.5 μM RA) is roughly 4 fold. The “Cln2 mRNA levels (RT-PCR and qPCR)” value in the experiment on Cln2 mRNA [1] (mouse primary astrocytes, serum free media, different doses and time points, maximum increase at 24 hrs of 25 μM gemfibrozil) is given as “upregulated”. The “Cln1 mRNA expression” value with Cln1 mRNA is reported as “increase within 12 to 24 h”. Besides, the “Cln3 mRNA expression” value in the experiment with Cln3 mRNA was “increase within 12 to 24 h”. Moreover, in the experiment on TPP1 [2], the TPP1 enzymatic activity entry is given as “drastically increased”. In the experiment on Cln2 mRNA [3] (25 μM gemfibrozil, at 12 hrs), the “increase in Cln2 mRNA levels, maximum of time course” value was roughly 10 fold. In addition, the “increase in Cln2 mRNA levels, maximum of dose response” value in the experiment on Cln2 mRNA [3] (25 uM gemfibrozil, different concentrations for 12 hrs) was roughly 15 fold. Besides, the “level of TPP1 protein (immunofluorescence)” value with TPP1 [4] is “considerable increase”. In addition, the “lysosomal proliferation (LysoTracker)” value in the experiment with primary human astrocytes is reported as “upregulation”. The “lysosomal marker protein TPP1 (double-labeling)” value in experiment [5] is on record as “upregulation”. Also, the “life span (percentage survival, Kaplan-Meier)” value in the experiment with CLN2 (−/−) mouse is recorded as “prolongs the life span”.

These data come from patent US11351142B2, “Composition and method for treating neuronal ceroid lipofuscinosis” (Rush University Medical Center, priority 2012, dated 2022).
